Test results as given in patent publication US20050187240A1, “Aaptamine and isoaaptamine and structural modifications thereof” (The Arizona Board of Regents, Acting for and on behalf of …, priority 2004, published 2005).

Experiments:
Enterococcus faecalis = assay: Broth microdilution susceptibility assay, Enterococcus faecalis; assay type: cell-based
CNS SF-268 = assay: Cancer cell growth inhibition, CNS SF-268; assay type: cell-based, human; settings: CNS SF-268
Procedure: (§1) Biology The cancer cell growth inhibitory properties were examined using the murine P388 lymphocytic leukemia cell line and a selection of human cancer cell lines.
(§2) All of the synthetic products were evaluated against a minipanel of human cancer cell lines, the murine P388 lymphocytic leukemia cell line and a selection of microorganisms.

Enterobacter cloacae = assay: Broth microdilution susceptibility assay, Enterobacter cloacae; assay type: cell-based
breast MCF-7 = assay: Cancer cell growth inhibition, breast MCF-7; assay type: cell-based, human; settings: breast MCF-7
Procedure: as §1, §2

[1] = system: murine P388 lymphocytic leukemia cell line; assay: Cancer cell growth inhibition, murine P388 lymphocytic leukemia cell line; assay type: cell-based
Summary of the method: (§3)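 Growth inhibition in murine P388 leukemia and human cancer cell line panels (Arizona State University minipanel and NCI 60-cell screen).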

Escherichia coli = assay: Broth microdilution susceptibility assay, Escherichia coli; assay type: cell-based
Neisseria gonorrhoeae = assay: Broth microdilution susceptibility assay, Neisseria gonorrhoeae; assay type: cell-based
PKC alpha [2] = target: T1, PKC alpha (Homo sapiens, UniProt P17252); assay: Inhibition of PKC catalytic activity (peptide substrate phosphorylation); assay type: biochemical
From the text: We further evaluated the ability of the derivatives to inhibit PKC catalytic activity. […] Inhibition by 10c was 19.5±7.6% and inhibition by 4, 5, and 9a, b, c was 6% or less (all values are mean±SEM, three experiments). […] In both cases, the inhibition curves were steeper than predicted for a competitive inhibitor, consistent with a complicated mechanism of action (Hill coefficients for 10a and 10b of 1.5±0.1 and 2.0±0.5, respectively).

Candida albicans = assay: Broth microdilution susceptibility assay, Candida albicans; assay type: cell-based
colon KM 20L2 = assay: Cancer cell growth inhibition, colon KM 20L2; assay type: cell-based, human; settings: colon KM 20L2
Summary of the method: as §3

Micrococcus luteus = assay: Broth microdilution susceptibility assay, Micrococcus luteus; assay type: cell-based
pancreas BXPC-3 = assay: Cancer cell growth inhibition, pancreas BXPC-3; assay type: cell-based, human; settings: pancreas BXPC-3
Procedure: as §1, §2

prostrate DU-145 = assay: Cancer cell growth inhibition, prostate DU-145; assay type: cell-based, human
Procedure: as §1, §2

PKC alpha [3] = target: T1, PKC alpha; assay: Inhibition of [3H]phorbol 12,13-dibutyrate binding to PKC alpha; settings: 30 μM compound; read-out: inhibition of [3H]phorbol 12,13-dibutyrate binding to PKC alpha
Procedure: Isoaaptamine (2) and derivatives 4, 5, 7, 8, and 14-18 were evaluated as ligands for PKC, based on the initial report of activity for isoaaptamine (Patil, et al., PCT Int. Appl. WO 95/0584 March 1995). Activity was measured at 30 μM compound using inhibition of [^3H-20]phorbol 12,13-dibutyrate binding to PKC alpha as described previously (Kazanietz, M. G., et al., Molecular Pharmacol., 1993, 44, 298). Assays were carried out with triplicate measurements in either single or triplicate experiments, depending on the compound.
Compounds 4, 5, 9a-c, and 10a-d were evaluated as ligands for PKC, based on the initial report of activity for isoaaptamine. Activity was measured at 30 μM compound using inhibition of [20-^3H]phorbol 12,13-dibutyrate binding to PKC alpha as described previously (Kazanietz, M. G., et al., Characterization of Ligand and Substrate Specificity for the Calcium-Dependent and Calcium-Independent Protein Kinase C Isoenzymes, Molecular Pharmacol. 1993, 44, 298-307). Assays were carried out with triplicate measurement in either single or triplicate experiments, depending on the compound. Inhibition by 9a and 9b was 6.4% and 9.2%, respectively. That by 10a, 10b, and 10d was 11.8%, 12.6%, and 16.0%, respectively. That by other derivatives was 5% or less. We conclude that these compounds show only very weak activity as ligands for PKC.

lung NCI-H460 = assay: Cancer cell growth inhibition, lung NCI-H460; assay type: cell-based, human; settings: lung NCI-H460
Summary of the method: as §3

[4] = system: Mycobacterium tuberculosis H37Rv; assay: Microplate Alamar Blue Assay, Mycobacterium tuberculosis; assay type: cell-based; settings: 6.25 μg/ml
[5] = system: Stenotrophomonas maltophilia; assay: Broth microdilution susceptibility assay, Stenotrophomonas maltophilia; assay type: cell-based
Staphylococcus aureus = assay: Broth microdilution susceptibility assay, Staphylococcus aureus; assay type: cell-based
Cryptococcus neoformans = assay: Broth microdilution susceptibility assay, Cryptococcus neoformans; assay type: cell-based
Streptococcus pneumoniae = assay: Broth microdilution susceptibility assay, Streptococcus pneumoniae; assay type: cell-based
[6] = Stability of the substance (observation); assay type: physicochemical
From the text: When newly isolated, isoaaptamine (2) appears as a yellow colored powder that rapidly changes to dark green and finally brown or black, presumably due to air oxidation. […] For that purpose, isoaaptamine (2) was first phosphorylated with dibenzylphosphate (Pettit, G. R. et al., Anti-Cancer Drug Design 2000, 15, 203-216; Silverberg, L. J., Tetrahedron Lett. 1996, 37, 771-774). […] Scheme 2 below illustrates the aforementioned synthesis method. [drawing 17] Biology

[7] = Homo sapiens, Table 5, read-out: Cancer Cell Line Results ED50

In the case of `COc1ccc(CN2C=Cc3cc(OC)c(OC)c4c3c2cc[n+]4Cc2ccc(OC)cc2)cc1.[Br-]` [Compound 10b, 8,9-Dimethoxy-1,4-bis-(4-methoxybenzyl)-4H-benzo-[de][1,6]naphthyridin-1-ium bromide], the “Range of minimum inhibitory concentration” value (Enterococcus faecalis; Table 6) is reported as 16 to 32 µg/mL, the IC50 (CNS SF-268; [7]) is reported as 0.27 µg/mL and the “Range of minimum inhibitory concentration” value (Enterobacter cloacae; Table 6) is reported as “* (no inhibition at 64 μg/mL)”. The IC50 (breast MCF-7; Homo sapiens, MCF7, Table 5, read-out: Cancer Cell Line Results ED50) was 0.39 µg/mL, the IC50 ([1]; Mus musculus, Table 5, leukemia P388, read-out: Cancer Cell Line Results ED50) was 1.3 µg/mL and the “Range of minimum inhibitory concentration” value (Escherichia coli; Table 6) was “* (no inhibition at 64 μg/mL)”. For the same molecule, the “Range of minimum inhibitory concentration” value (Neisseria gonorrhoeae; Table 6) was 4 µg/mL, the “Hill coefficient of PKC inhibition curve” value (PKC alpha [2]) was 2.0±0.5 and the inhibition at 30 µM (PKC alpha [2]; 30 μM compound, 1 μM phorbol 12-myristate 13-acetate, 100 μg/ml phospholipid, mean±SEM, three experiments, read-out: percent inhibition of PKC catalytic activity) was 84.6 ± 1.1%. The IC50 (PKC alpha [2]; complete dose response curves, mean±SEM, 3 experiments, read-out: ID50 for inhibition of PKC catalytic activity) was 7.4 ± 1.2 µM, the “Range of minimum inhibitory concentration” value (Candida albicans; Table 6) was “* (no inhibition at 64 μg/mL)” and the IC50 (colon KM 20L2; [7]) was 0.13 µg/mL. The “Range of minimum inhibitory concentration” value (Micrococcus luteus; Table 6) was less than 0.5 µg/mL, the IC50 (pancreas BXPC-3; [7]) was 0.11 µg/mL and the IC50 (prostrate DU-145; Homo sapiens, DU-145, Table 5, prostate DRU-145, read-out: Cancer Cell Line Results ED50) was 0.1 µg/mL. It also gave an inhibition at 30 µM (PKC alpha [3]) of 12.6%, an IC50 (lung NCI-H460; [7]) of 0.33 µg/mL and an inhibition at 6.25 µg/mL [4] of 97%. For the same molecule, the “Range of minimum inhibitory concentration” value ([5]; Table 6) was “* (no inhibition at 64 μg/mL)”, the “Range of minimum inhibitory concentration” value (Staphylococcus aureus; Table 6) was 4 µg/mL and the “Range of minimum inhibitory concentration” value (Cryptococcus neoformans; Table 6) was 32 to 64 µg/mL. For the same molecule, the “Range of minimum inhibitory concentration” value (Streptococcus pneumoniae; Table 6) was 16 to 32 µg/mL.
In the case of “Disodium isoaaptamine 9-O-phosphate [Compound 11]”, the “Range of minimum inhibitory concentration” value (Enterococcus faecalis; Table 2) is reported as “* (no inhibition at 64 ug/ml)”, the “Cancer cell growth inhibitory ED50” value (CNS SF-268; Table 3) is reported as 0.28 µg/mL and the “Range of minimum inhibitory concentration” value (Enterobacter cloacae; Table 2) is reported as “* (no inhibition at 64 ug/ml)”. The “Cancer cell growth inhibitory ED50” value (breast MCF-7; Table 3) was 2.2 µg/mL, the “Cancer Cell Line Results ED50” value ([1]; Table 1, leukemia murine P388) was 3.0 µg/mL and the “Cancer cell growth inhibitory ED50” value ([1]; Table 3, leukemia P-388) was 0.23 µg/mL. The “Range of minimum inhibitory concentration” value (Escherichia coli; Table 2) was “* (no inhibition at 64 ug/ml)”, the “Range of minimum inhibitory concentration” value (Neisseria gonorrhoeae; Table 2) was less than 0.5 µg/mL and the “Range of minimum inhibitory concentration” value (Candida albicans; Table 2) was “* (no inhibition at 64 ug/ml)”. The “stability” value [6] was “more stable”, the “Cancer Cell Line Results ED50” value (colon KM 20L2; Table 1) was greater than 10 µg/mL and the “Cancer cell growth inhibitory ED50” value (colon KM 20L2; Table 3) was 0.88 µg/mL. The “Range of minimum inhibitory concentration” value (Micrococcus luteus; Table 2) was “* (no inhibition at 64 ug/ml)”, the “Cancer cell growth inhibitory ED50” value (pancreas BXPC-3; Table 3) was 0.74 µg/mL and the “Cancer cell growth inhibitory ED50” value (prostrate DU-145; Table 3, prostrate DU-145) was 0.52 µg/mL. The “Cancer Cell Line Results ED50” value (lung NCI-H460; Table 1) was greater than 10 µg/mL, the “Cancer cell growth inhibitory ED50” value (lung NCI-H460; Table 3) was 1.9 µg/mL and the “Range of minimum inhibitory concentration” value ([5]; Table 2) was “* (no inhibition at 64 ug/ml)”. The “Range of minimum inhibitory concentration” value (Staphylococcus aureus; Table 2) was 64 µg/mL, the “Range of minimum inhibitory concentration” value (Cryptococcus neoformans; Table 2) was “* (no inhibition at 64 ug/ml)” and the “Range of minimum inhibitory concentration” value (Streptococcus pneumoniae; Table 2) was 16 to 32 µg/mL.
